Data on three compounds can be found in patent US20080311092A1, “Murine Stem Cells and Applications Thereof” (priority 2005, published 2008).

For experiment [1], the system named is B cell acute lymphoblastic leukaemia (B-ALL). The conditions noted are these: BCR-ABLp210 mouse model, not stem-cell targeted; cited from earlier work.
Experiment [2] concerns human CML. As to conditions: cited from earlier work; for Outcome of treatment in human CML: humans.
In experiment [3] the test system is CSC that express BCR-ABL. Put plainly: Ganciclovir treatment of PLy6-HSVtk-IRES-BCRABLp210 (Sca1-IRES-HVTK-BCR-ABL p210) mice. It counts as in vivo, mouse. As to conditions: for Disappearance of cancers / tumour burden on GCV treatment: PLy6-HSVtk-IRES-BCRABLp210 mice, 100% with tumours at start, 60 mice injected daily with GCV (100 mg/kg/day i.p.). The method, then:
PLy6-HSVtk-IRES-BCRABLp210 mice were used to test the effectiveness of GCV-induced cell death in CSC that express BCR-ABL. GCV, after preliminary testing, was administered at a dose of 100 mg/kg/day by i.p. injection for 14 days. This dose has been reported to kill cells expressing HSV-tk in transgenic mice (Bush TG. Cell 1998, 93: 189-201). Dosing started when the mice were leukaemic. A control group was given injections of normal saline.
(§1) Ganciclovir: stock solutions were prepared following the SIGMA indications. The regimen was 100 mg/kg/day by intraperitoneal injection for 14 days. The placebo was an equal volume of diluent water/normal saline.
30 mice were used as a control and were subjected daily with saline solution whereas the 60 remaining mice were injected daily with GCV as described in method section.
(§2) The mice were treated either with ganciclovir (GCV) or with placebo, as described under materials and methods. For each mouse model, 60 mice were injected daily with ganciclovir, and 30 mice were used as a control and injected daily with saline (placebo).

For experiment [4], the system named is Sca1-positive cells. Nature of the experiment: Ganciclovir treatment of Sca1-BCL6-IRES-HVTK mice. In kind it is in vivo, mouse. The method, then:
as §1
CSC mouse cancer models (Sca1-HVTK-IRES-BCR-ABLp210 and Sca1-BCL6-IRES-HVTK mice) were used to address the question of whether the selective ablation of Sca1-positive cells is effective in the therapy of cancer.
as §2

Experiment [5] has as its system diffuse large B-cell lymphoma. Nature of the experiment: Doxorubicin treatment of Sca1/BCL6 cancer stem cell model mice, cell counting. It counts as in vivo, mouse. The protocol:
DXR (doxorubicin) was dosed at 7 mg/kg. […] Drugs were dissolved in water and delivered intravenously. Water was used as placebo.

For experiment [6], the system named is lung cancer. Nature of the experiment: Doxorubicin treatment of Sca1/hKRAS CSC model lung cancer mice, survival study. As to conditions: for Outcome of treatment in the lung cancer CSC mouse model: Sca1/hKRAS mice. It counts as in vivo, mouse. The protocol:
DXR (doxorubicin) was dosed at 7 mg/kg. The administration scheme was every 7th day, 3 times—q7dx3—for a duration of 4-5 weeks. Drugs were dissolved in water and delivered intravenously. Water was used as placebo.

For experiment [7], the system named is human lymphomas. The conditions noted are these: humans; cited from earlier work.
Experiment [8] deals with human lung cancer. The conditions noted are these: humans; cited from earlier work.

Entries after “also recorded” stand apart in the source; their conditions may differ. Read-outs that look alike come from different tables or passages of the source. Some results are limits rather than exact numbers.

For `Cc1ccc(NC(=O)c2ccc(CN3CCN(C)CC3)cc2)cc1Nc1nccc(-c2cccnc2)n1` [Gleevec™, imatinib], the “Outcome of treatment in conventional mouse B-ALL model” value in experiment [1] is on record as “cures the cancer”. Besides, in experiment [2] (Michor F et al. Nature (2005)), the “Effect on leukaemic stem cells in humans” value was “does not deplete leukaemic stem cells”. The “Outcome of treatment in human CML” value in experiment [2] was “only gives symptomatic relief; also recorded: typically relapse”; in experiment [2] (listed as Gleevec) it was “provides symptomatic relief”.

Take `Nc1nc(O)c2ncn(COC(CO)CO)c2n1` [ganciclovir]: the “Tumour recurrence during further monitoring” value in experiment [3] (8 weeks of further monitoring) is “did not recur”. For the same compound, in experiment [3] (60 Sca1-IRES-HVTK-BCR-ABL p210 mice treated with ganciclovir), the “Time of treatment after which tumours disappeared completely” value is on record as 8 weeks. Further, the “Disappearance of cancers / tumour burden on GCV treatment” value in experiment [3] (listed as GCV) was “cancers disappeared completely”; in experiment [3] (listed as Gancyclovir), “complete reduction of tumour burden”. In experiment [3] (additional 3 months of observation after cancers disappeared), the “Tumour recurrence (CML and solid tumours) after GCV treatment” value is on record as “no tumour recurrence was observed”. Besides, the “Time to elimination of all tumours” value in experiment [4] (Sca1-BCL6-IRES-HVTK mice, 60 mice injected daily with ganciclovir) was 10 weeks. Further, the “Tumour recurrence during additional monitoring” value in experiment [4] (additional 11 weeks of monitoring) is “no tumour recurrence was observed”.

With `COc1cccc2c1C(=O)c1c(O)c3c(c(O)c1C2=O)C[C@@](O)(C(=O)CO)C[C@@H]3O[C@H]1C[C@H](N)[C@H](O)[C@H](C)O1` [doxorubicin], the “Outcome of treatment of diffuse large B-cell lymphoma in CSC mice” value in experiment [5] (Sca1/BCL6 CSC mouse model) was “ineffective; also recorded: unsuccessful”. Also, the “Change in number of B cells” value in experiment [5] (Sca1/BCL6 mice, 3-5 month course of doxorubicin treatment) is “decreased or increased slightly”. Further, the “Factor by which the number of CSC increased” value in experiment [5] (Sca1/BCL6 mice, over three months of doxorubicin treatment) is reported as 7-8. In addition, the “Survival: none of the treated mice survived longer than” value in experiment [6] (CSC model lung cancer mice, doxorubicin 7 mg/kg i.v. q7dx3) is on record as at most 20 weeks. Besides, the “Outcome of treatment in the lung cancer CSC mouse model” value in experiment [6] was “ineffective; also recorded: unsuccessful”; in experiment [6] (listed as Doxorubicin) it was “also unsuccessful”. The “Outcome of treatment in human lymphoma / DLBCL patients” value in experiment [7] is “virtually all human lymphoma patients treated with doxorubicin relapse”. The “Outcome of treatment of human lung cancer” value in experiment [8] is listed as “unsuccessful”.
